Key:
Type in all cases: in vivo, C57/BL6J mice
[1] = test system: Diet Induced Obesity (DIO) mouse model; test: Example 1: low and intermittent dosing in DIO mouse model; conditions: 2 mg/kg p.o., 3 days a week, 28 days
Source text: The aim of the preliminary study is to determine the effect of low and intermittent dosing of ulodesine hemi glutarate on the following parameters: weight gain, food intake, fasting blood glucose concentration and serum cholesterol. The study assesses ulodesine hemi glutarate efficacy on the listed parameters in the DIO mouse model of obesity and metabolic dysfunction.
Method: C57/BL6J mice were fed obesogenic diet D12492 (60 kcal % fat) from age 6 weeks. Eighteen week old mice (approximately 40 g) were either treated with vehicle (control) or ulodesine hemi glutarate at 2 mg/kg for 3 days a week (days 1, 2 and 3) given orally, over a 28 day period. On day −2 and on day 28, animals were fasted for 6 hr by withdrawing food only, and blood was collected for both blood glucose and cholesterol measurements.

DIO mouse model = test: Example 2: low and intermittent dosing in DIO mouse model; conditions: 2 mg/kg p.o., 3 days a week
Source text: The aim of this study is to determine the effect of a low and intermittent dosing regime of ulodesine hemi glutarate on the following parameters: weight gain, food intake, fasting blood glucose concentration, serum insulin, serum cholesterol, plasma liver enzymes aspartate aminotransferase (AST) and alanine transaminase (ALT), inguinal white adipose tissue (iWAT), BAT; inosine in plasma and NAD+ in whole blood, and expression of lipogenesis (fatty acid synthesis) markers in iWAT and thermogenic markers in BAT. The study will assess ulodesine hemi glutarate efficacy on the listed parameters in the DIO mouse model of obesity and metabolic dysfunction.
(§1) Method: C57/BL6J mice were fed obesogenic diet D12492 (60 kcal % fat) from age 6 weeks. Nineteen week old mice (approximately 50 g) were either treated with vehicle (control) or ulodesine hemi glutarate at 2 mg/kg for 3 days a week (days 1, 2 and 3), given orally, over a 28 day period. On day minus 2 and on day 28, animals were fasted for 6 hr (only food withdrawn) and blood was collected for both blood glucose and cholesterol. On day 28 plasma liver enzymes (AST and ALT) and insulin were determined and additional plasma and whole blood was frozen and used for inosine and NAD+ measurement. BAT and iWAT was collected at the end of the study, weighed and quantitative PCR was performed for the lipogenesis markers Stearoyl CoA desaturase 1 (SCD-1) and fatty acid synthetase (FAS) and the thermogenesis marker uncoupling protein 1 (UCP-1). Inosine and NAD+ levels in stored plasma and whole blood respectively were determined by LC/MS/MS.

[2] = test system: uncoupling protein 1 (UCP-1); test: Example 2: quantitative PCR of thermogenesis marker in BAT; conditions: 2 mg/kg p.o., 3 days a week, 28 days; vs vehicle
Experimental: as §1

[3] = test system: Stearoyl CoA desaturase 1 (SCD-1); test: Example 2: quantitative PCR of lipogenesis marker SCD-1; conditions: 2 mg/kg p.o., 3 days a week, 28 days; vs vehicle
Experimental: as §1

[4] = test system: fatty acid synthetase (FAS); test: Example 2: quantitative PCR of lipogenesis marker FAS; conditions: 2 mg/kg p.o., 3 days a week, 28 days; vs vehicle
Experimental: as §1

lymphocytes = test: Example 4: total lymphocytes by flow cytometry in DIO mouse model; conditions: 3 days a week, 4 weeks
Experimental: The aim of this study is to determine the effect of increasing doses of ulodesine hemi glutarate on lymphocytes in whole blood.
Method: C57/BL6J mice were fed obesogenic diet D12492 (60 kcal % fat) from age 6 weeks. Eighteen weeks old mice (approximately 40 g) were either treated with vehicle (control) or ulodesine hemi glutarate at 1, 2, 5, and 10 mg/kg for only 3 days a week (days 1, 2 and 3) given orally for 4 weeks. At the end of four weeks, flow cytometry was used to enumerate total lymphocytes.

O=c1[nH]cnc2c(CN3C[C@H](CO)[C@@H](O)C3)c[nH]c12 [ulodesine hemi glutarate]
toxicity or adverse effects [1]: no signs of any toxicity or adverse effects | fasting blood glucose ([1]; vs control): decrease in blood glucose | serum cholesterol ([1]; vs control): decrease in blood glucose and serum cholesterol | weight gain ([1]; ~40 g mice, vs control): significant decrease in weight gain | insulin sensitivity (DIO mouse model; 28 days): improves insulin sensitivity | toxicity or adverse effects (DIO mouse model; 28 days): no signs of any toxicity or adverse effects | decrease in weight gain (DIO mouse model; 28 days, ~50 g mice, vs control): not significantly different from the control group | NAD+ in whole blood (DIO mouse model; day 28, LC/MS/MS): significantly elevated | inosine in plasma (DIO mouse model; day 28, LC/MS/MS): significantly elevated | expression of thermogenic marker UCP-1 in BAT tissue [2]: increase in expression | expression of lipogenesis marker SCD-1 in WAT tissue [3]: decrease | expression of lipogenesis marker FAS in WAT tissue [4]: decrease | number of lymphocytes (lymphocytes; 1 mg/kg p.o.): does not impact the number of lymphocytes | number of lymphocytes (lymphocytes; 2 mg/kg p.o.): does not impact the number of lymphocytes | number of lymphocytes (lymphocytes; 5 mg/kg p.o.): not significant at doses of 5 mg and 10 mg/kg, there appeared to be an observable decrease in lymphocytes | number of lymphocytes (lymphocytes; 10 mg/kg p.o.): not significant at doses of 5 mg and 10 mg/kg, there appeared to be an observable decrease in lymphocytes
